{"source": "patent US20020010128A1", "about": "“Treatment of hyperproliferative, inflammatory and related mucocutaneous disorders using inhibitors of mevalonate synthesis and metabolism” (priority 2000, published 2002)", "key": {"NFAT": {"system": "NFAT", "experiment": "NFAT-regulated reporter gene in transiently transfected Jurkat cells", "assay_type": "cell-based, human", "settings": "for NFAT activity induced by ionomycin and dominant active ras / NFAT activity stimulated by PMA and dominant active calcineurin: Jurkat cells", "from_the_text": "The effects of lovastatin on NFAT activation and IL-2 gene expression were investigated in Jurkat T cells (human leukemia T cells). Lovastatin inhibited the expression of an NFAT-regulated reporter gene in transiently transfected Jurkat cells stimulated with ionomycin and PMA or with thapsigargin + PMA.\nNFAT is synergistically activated by the Ca^2+/calcineurin and PKC/ras/MAPK pathways. To gain further insight into the novel mechanism of action of lovastatin, dominant active forms of calcineurin and ras were expressed in Jurkat cells to bypass early signaling events mediated by ionomycin (i.e., Ca^2+) and PMA (i.e., PKC)."}, "human IL-2 promoter": {"system": "human IL-2 promoter", "experiment": "Human IL-2 promoter activation in Jurkat cells", "assay_type": "cell-based", "from_the_text": "(§1) The effects of lovastatin on NFAT activation and IL-2 gene expression were investigated in Jurkat T cells (human leukemia T cells)."}, "[1]": {"system": "RSV-driven control reporter gene", "experiment": "RSV-driven control reporter gene in Jurkat cells", "assay_type": "cell-based, human", "from_the_text": "as §1"}, "IL-2 mRNA": {"system": "IL-2 mRNA", "experiment": "IL-2 mRNA accumulation in stimulated Jurkat cells", "assay_type": "cell-based, human", "settings": "Jurkat cells stimulated with ionomycin and PMA", "from_the_text": "(§2) Since NFAT plays a critical role in IL-2 gene transcription, the effects of lovastatin on IL-2 mRNA levels and IL-2 secretion from stimulated lymphoid cells were investigated."}, "IL-2": {"system": "IL-2", "experiment": "IL-2 secretion from stimulated Jurkat cells", "assay_type": "cell-based, human", "from_the_text": "as §2"}, "TNF-α": {"system": "TNF-α", "experiment": "TNF-alpha secretion from stimulated Jurkat cells", "assay_type": "cell-based, human", "settings": "ionomycin and PMA-stimulated Jurkat cells"}, "[2]": {"system": "RBL-2H3 mucosal mast cell line", "experiment": "3H-serotonin release (degranulation) from RBL-2H3 mast cells", "assay_type": "cell-based", "from_the_text": "The RBL-2H3 mucosal mast cell line has been used extensively to study stimulus secretion coupling. Treatment with a calcium ionophore or antigenic crosslinking of the high affinity receptor for IgE on these cells leads to degranulation and the secretion of various proinflammatory mediators, including biogenic amines such as histamine and serotonin."}, "[3]": {"system": "DNFB-induced contact hypersensitivity in mice", "experiment": "DNFB-induced contact hypersensitivity in mice (ear swelling)", "assay_type": "in vivo, mouse", "settings": "1% topical, applied 30 minutes or one hour after challenge, 48 hours post-challenge", "protocol": "The protocol involved shaving the posterior portion of the backs of anesthetized 7-8 week old female Balb/c mice with electric clippers. […] The concentration of DNCB in the sensitizing solution ranged from 0.5% to 4% w/v or 0.1 to 0.5% for DNFB. […] Post challenge ear thickness measurements were taken at 8, 16, 24, 32, 48, 56 and 72 hours. […] However, a swelling response of at least 50% above baseline was considered reasonable.\n(§3) The percent suppression for each formulation was determined at 48 hours post-challenge."}, "[4]": {"system": "oxazolone-induced contact hypersensitivity in mice", "experiment": "Oxazolone-induced contact hypersensitivity in mice", "assay_type": "in vivo, mouse", "settings": "topical sensitizer oxazolone instead of DNFB", "protocol": "Challenging mouse ears with haptens, such as 1-chloro-2,4-dinitrobenzene (DNCB), 2,4-dinitrofluorobenzene (DNFB), or oxazolone after a 5 day sensitization phase, induced severe swelling associated with an immune response that included a memory T cell infiltrate. Maximum swelling occurred between 24 and 48 hours after challenge. Thus, DNFB, DCNB and oxazolone were considered to induce delayed contact hypersensitivity.\nThe protocol involved shaving the posterior portion of the backs of anesthetized 7-8 week old female Balb/c mice with electric clippers. DNCB in acetone:olive oil (4:1), DNFB in acetone alone or oxazolone (15% oxazolone in 97% acetone/3% DMSO) was applied to the shaved area in a volume of 50 μl (DNCB), 100 μl (DNFB), or 20 μl (oxazolone). The concentration of DNCB in the sensitizing solution ranged from 0.5% to 4% w/v or 0.1 to 0.5% for DNFB. Five days after sensitization, the thickness of both ears was measured with a spring-loaded micrometer and both surfaces of the ears were challenged with either 10 μl of DNCB in acetone:olive oil ranging in concentration from 0.25%-2.5% w/v, 10 μl of DNFB in acetone at 0.1%, 10 μl 2% oxazolone in 97% acetone/3% DMSO, or vehicle alone. Post challenge ear thickness measurements were taken at 8, 16, 24, 32, 48, 56 and 72 hours. […]\nas §3"}, "Asthma patients": {"system": "Asthma patients", "experiment": "Treatment of asthma patients with aerosolized lovastatin", "assay_type": "in vivo, human", "settings": "aerosolized form or nasal inhaler"}, "[5]": {"system": "TPA-induced ear swelling in mice", "experiment": "TPA-induced ear swelling, mouse acute irritant dermatitis model", "assay_type": "in vivo", "procedure": "Mevastatin was tested topically at 0.5% with several oxysterols known to downregulate HMG-CoA reductase expression, including 25-hydroxycholesterol, in the mouse acute irritant dermatitis model. TPA was applied topically to the ears of mice and the resultant swelling response was measured 24 hr later. Compounds or vehicle alone were topically applied to ears 1 and 6 hr following TPA treatment. The data was expressed as a percent inhibition of the swelling response in the presence of compounds as compared to ears treated with vehicle only.\nThe phorbol ester 12-0-tetradecanoyl-13-phorbol acetate (TPA) is the active ingredient in […]. TPA induced skin inflammation peaked between 24 and 30 hours when the ear was the target and between 8 and 16 hours when the flank was the target. These two alternative targets allowed to determine both the short and the longer term activity of different compounds in suppressing TPA-induced inflammation. […]\nThe model systems described in Example 9 were employed, using TPA challenge as a model for acute inflammation. […] The percent suppression for each formulation was determined as described in Example 9 at 30 hours post-challenge (for TPA). Results are reported as the percent suppression of inflammation compared to untreated controls, as measured by ear thickness."}, "Murine thymic T cells": {"system": "Murine thymic T cells", "experiment": "Murine thymic T cell proliferation (ConA stimulation, MTT assay)", "assay_type": "cell-based", "settings": "for inhibition of T cell proliferation: murine thymic T cells, different concentrations; for effect of mevalonate on inhibition of T cell proliferation: presence of 1 mM mevalonate", "procedure": "Murine thymic T cells were stimulated with Concanavalin A and incubated for 72 hr, and proliferation was then assessed by measuring viable cell number using the MTT assay (OD 570 nm proportional to viable cell number). Different concentrations of mevastatin and oxysterol alone (CP compounds; Panel A) or oxysterol combined with lanolin (Panel B) were added to the cells 1 hr following ConA treatment (FIG. 2).\nT cells were incubated with different concentrations of mevastatin (CP 115) alone or in the presence of 1 mM mevalonate (MA). The inhibition of T cell proliferation by mevastatin was prevented by addition of mevalonic acid, the product of the HMG-CoA reductase reaction (FIG. 3).\nMurine thymic T cells were incubated with different concentrations of 25-hydroxycholesterol (CP 105; Panel A) or an oxysterol combined with lanolin (C-010; Panel B) in the absence or presence of 1 mM mevalonate (MA).\nTo further test this synergistic effect, T cells were incubated with different concentrations of mevastatin alone or in combination with 0.25 μg/ml 25-hydroxycholesterol (CP 105; FIG. 5, Panel A) or 10 μg/ml of an oxysterol combined with lanolin (C-010; FIG. 5, Panel B). The data was expressed as percent of control proliferation. CP 105 and C-010 inhibited T cell proliferation 14% and 28% at the indicated concentrations, respectively. Thus minimally effective concentrations of 25-hydroxycholesterol and C-0010-010 decreased the IC50 of mevastatin by a factor greater than 10-fold (FIG. 5). This experiment confirmed that the inhibition of T cell proliferation by mevastatin is advantageously potentiated by oxysterols.\nMurine thymic T cells were incubated with different concentrations of an inhibitor of geranylgeranyl transferase (GGTI)."}}}
{"smiles": "CC[C@H](C)C(=O)O[C@H]1C[C@@H](C)C=C2C=C[C@H](C)[C@H](CC[C@@H]3C[C@@H](O)CC(=O)O3)[C@H]21", "note": "[lovastatin]", "values": [{"measurement": "NFAT activity induced by ionomycin and dominant active ras", "setting": "NFAT", "result": "strongly inhibited"}, {"measurement": "NFAT activity stimulated by PMA and dominant active calcineurin", "setting": "NFAT", "result": "relatively insensitive"}, {"measurement": "expression of NFAT-regulated reporter gene", "setting": "NFAT; Jurkat cells stimulated with ionomycin and PMA or thapsigargin + PMA", "result": "inhibited"}, {"measurement": "effect of mevalonic acid on inhibition of NFAT reporter activity", "setting": "NFAT; preincubation of Jurkat cells with mevalonic acid", "result": "did not reverse"}, {"measurement": "IC50", "setting": "NFAT; stated as similar to the IL-2 secretion IC50, read-out: IC50, inhibition of NFAT-dependent reporter activity", "result": "~12", "unit": "µM"}, {"measurement": "activation of the human IL-2 promoter", "setting": "human IL-2 promoter", "result": "inhibited activation"}, {"measurement": "transcription from RSV-driven control reporter gene", "setting": "[1]", "result": "did not affect"}, {"measurement": "IL-2 mRNA accumulation", "setting": "IL-2 mRNA", "result": "inhibited"}, {"measurement": "IC50", "setting": "IL-2; Jurkat cells stimulated with ionomycin and PMA, read-out: IC50, inhibition of IL-2 secretion", "result": 12, "unit": "µM"}, {"measurement": "effect of mevalonic acid on inhibition of IL-2 secretion", "setting": "IL-2; addition of mevalonic acid", "result": "not reversed"}, {"measurement": "TNF-α secretion", "setting": "TNF-α", "result": "inhibit"}, {"measurement": "release of 3H-serotonin", "setting": "[2]; RBL-2H3 cells stimulated with antigen or calcium ionophore, dose-dependent", "result": "inhibited"}, {"measurement": "effect of mevalonic acid on inhibition of 3H-serotonin release", "setting": "[2]; co-incubation with mevalonic acid", "result": "not reversed"}, {"measurement": "suppression of DNFB-induced delayed contact hypersensitivity (ear swelling)", "setting": "[3]", "result": "reduced delayed contact hypersensitivity"}, {"measurement": "suppression of oxazolone-induced contact hypersensitivity", "setting": "[4]", "result": "dose-dependent"}, {"measurement": "relief of lung constriction and inflammation in asthma patients", "setting": "Asthma patients", "result": "more effective relief of lung constriction and inflammation"}]}
{"smiles": "CC[C@H](C)C(=O)O[C@H]1CCC=C2C=C[C@H](C)[C@H](CC[C@@H]3C[C@@H](O)CC(=O)O3)[C@H]21", "note": "[mevastatin]", "values": [{"measurement": "percent suppression of TPA-induced acute inflammation, measured by ear thickness", "setting": "[5]; 0.5% in ethanol/cyclohexane (1:1), applied 30 minutes or one hour after challenge, 30 hours post-challenge", "result": 58, "unit": "%"}, {"measurement": "inhibition of TPA-induced ear swelling", "setting": "[5]; 0.5% topical, applied 1 and 6 hr after TPA, swelling measured 24 hr later", "result": "significantly inhibited"}, {"measurement": "inhibition of T cell proliferation", "setting": "Murine thymic T cells", "result": "potently inhibit"}, {"measurement": "effect of mevalonate on inhibition of T cell proliferation", "setting": "Murine thymic T cells", "result": "reversed by mevalonate"}]}
{"smiles": "COC(=O)[C@H](CC(C)C)NC(=O)c1ccc(NC[C@@H](N)CS)cc1-c1ccccc1", "note": "[GGTI-286]", "values": [{"measurement": "inhibition of T cell proliferation", "setting": "Murine thymic T cells", "result": "Dose-dependent inhibition"}]}
{"smiles": "C[C@H](CCCC(C)(C)O)[C@H]1CC[C@H]2[C@@H]3CC=C4C[C@@H](O)CC[C@]4(C)[C@H]3CC[C@]12C", "note": "[25-hydroxycholesterol]", "values": [{"measurement": "inhibition at 0.25 µg/mL", "setting": "Murine thymic T cells; Mus musculus, T-cell, 0.25 μg/ml", "result": 14, "unit": "%"}, {"measurement": "effect of mevalonate on inhibition of T cell proliferation", "setting": "Murine thymic T cells", "result": "not prevented by mevalonic acid"}]}
{"smiles": "CN(C)CCCn1cc(C2=C(c3c[nH]c4ccccc34)C(=O)NC2=O)c2ccccc21", "note": "[Gö6850]", "values": [{"measurement": "NFAT activity induced by ionomycin and dominant active ras", "setting": "NFAT", "result": "inactive"}, {"measurement": "NFAT activity stimulated by PMA and dominant active calcineurin", "setting": "NFAT", "result": "inhibited"}]}
